Experimental findings from patent US20020028938A1, “Prostaglandin endoperoxide H synthase biosynthesis inhibitors” (priority 1997, published 2002) are described below.

For data set [1], the target named is T1, human amnionic whole cell cyclooxygenase-2 (WISH cells) (Homo sapiens, UniProt P35354).
T1 construct: endogenous in cells; host or cells: human amnionic WISH cells, induced with IL-1beta
T1 sequence (P35354 18-604): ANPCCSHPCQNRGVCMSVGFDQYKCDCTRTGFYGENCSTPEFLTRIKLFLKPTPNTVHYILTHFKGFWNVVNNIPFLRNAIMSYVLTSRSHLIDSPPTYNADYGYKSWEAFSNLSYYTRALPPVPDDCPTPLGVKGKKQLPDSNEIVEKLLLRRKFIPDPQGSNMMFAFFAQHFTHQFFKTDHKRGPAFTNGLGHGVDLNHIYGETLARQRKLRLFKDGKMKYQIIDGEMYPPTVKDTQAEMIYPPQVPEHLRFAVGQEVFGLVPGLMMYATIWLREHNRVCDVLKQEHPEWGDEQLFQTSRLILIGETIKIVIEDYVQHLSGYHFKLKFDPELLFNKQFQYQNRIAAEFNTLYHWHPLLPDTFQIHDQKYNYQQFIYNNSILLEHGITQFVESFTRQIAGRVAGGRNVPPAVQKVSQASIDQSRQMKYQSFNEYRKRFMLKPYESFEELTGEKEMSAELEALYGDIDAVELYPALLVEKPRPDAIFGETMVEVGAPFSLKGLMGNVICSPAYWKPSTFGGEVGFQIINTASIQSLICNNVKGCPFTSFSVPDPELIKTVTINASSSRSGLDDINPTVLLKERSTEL
The data set can be described thus: IL-1β induced PGE2 production in WISH cells. Format: cell-based. The note with it: for IC50: read-out: Wish IC50 (parenthetical value). The essentials:
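PGE2 was quantified by enzyme immunoassay (optical density read) against standards made up in the matching medium. WISH cells at 80% confluence, washed and placed in serum-free Neuman-Tytell medium, received 5 ng/ml IL-1β plus test compound or DMSO vehicle (0.01% v/v).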

Data set [2] addresses T2, Human Whole Platelet Cyclooxygenase-1 (Homo sapiens, UniProt P23219).
T2 construct: from tissue; host or cells: human blood: isolated platelets (A4) or heparinised whole blood (A9)
The data set can be described thus: Human Whole Platelet Cyclooxygenase-1 assay (HWPX). Format: cell-based. The note with it: for IC50: read-out: HWPX IC50 (parenthetical value). As for the experimental part:
Blood from normal healthy volunteers is collected into tubes containing ACD (acid citrate dextrose) as the anticoagulant. This blood is centrifuged at 175×g to prepare platelet rich plasma. The platelet rich plasma is then centrifuged at 100×g to pellet the white blood cells, leaving the platelets in the supernatant. The supernatant is layered on a cushion of 0.7 mL of 10% bovine serum albumin in Tyrodes solution (Gibco; Grand Island, N.Y.) and then centrifuged at 1000×g. The resulting supernatant from this centrifuigation is then removed and 11 mL of Tyrodes solution is added to the remaining pellet of platelets. The platelets are then aliquoted at 120 μl into a 96 well plate. Experimental compounds are added and allowed to pre-incubate for 10 minutes. At the end of this pre-incubation period, the calcium ionophore A23187 is added to a final concentration of 8.8 μM and the incubation is continued for ten minutes. The reaction is stopped by adding cold 6 mM EDTA, the incubation mixture is centrifuged at 220×g, and the supernatants are then analyzed for thromboxane using a commercial kit from Cayman Chemical (Ann Arbor, Mich.

Data set [3] has as its target T3, recombinant human Cox-1 (r-hu Cox1) (Homo sapiens, UniProt P23219).
T3 construct: made in house; host or cells: baculovirus/Sf9 insect cells (microsomes)
Briefly: Recombinant human PGHS-1 enzyme assay (RHUCX1). The format is biochemical. The note with it: for inhibition at 100 µM / inhibition at 1 µM / inhibition at 10 µM: read-out: RHUCX1 % Inh. at Dose; for IC50: read-out: RHUCX1 IC50 (parenthetical value). The essentials:
(§1)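 PGE2 production measured by enzyme immunoassay with standards in the same milieu. Inhibition was computed versus control group mean and IC50 estimated by linear regression.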

The target of data set [4] is T4, recombinant human Cox-2 (r-hu Cox-2) (Homo sapiens, UniProt P35354).
T4 construct: made in house; host or cells: baculovirus/Sf9 insect cells (microsomes)
T4 sequence (P35354 18-604): T1 sequence (P35354 18-604)
Briefly: Recombinant human PGHS-2 enzyme assay (RHUCX2). The format is biochemical. The note with it: for IC50: read-out: RHUCX2 IC50 (parenthetical value). An outline of the steps: as §1

The mark [5] stands for this setting: 10 μM, read-out: HWPX % Inhib. at Dose.
The mark [6] stands for this setting: 0.1 μM, read-out: RHUCX2 % Inh. at Dose.
[7] abbreviates: 1 μM, read-out: RHUCX2 % Inh. at Dose.

T2 sequence (P23219 24-599): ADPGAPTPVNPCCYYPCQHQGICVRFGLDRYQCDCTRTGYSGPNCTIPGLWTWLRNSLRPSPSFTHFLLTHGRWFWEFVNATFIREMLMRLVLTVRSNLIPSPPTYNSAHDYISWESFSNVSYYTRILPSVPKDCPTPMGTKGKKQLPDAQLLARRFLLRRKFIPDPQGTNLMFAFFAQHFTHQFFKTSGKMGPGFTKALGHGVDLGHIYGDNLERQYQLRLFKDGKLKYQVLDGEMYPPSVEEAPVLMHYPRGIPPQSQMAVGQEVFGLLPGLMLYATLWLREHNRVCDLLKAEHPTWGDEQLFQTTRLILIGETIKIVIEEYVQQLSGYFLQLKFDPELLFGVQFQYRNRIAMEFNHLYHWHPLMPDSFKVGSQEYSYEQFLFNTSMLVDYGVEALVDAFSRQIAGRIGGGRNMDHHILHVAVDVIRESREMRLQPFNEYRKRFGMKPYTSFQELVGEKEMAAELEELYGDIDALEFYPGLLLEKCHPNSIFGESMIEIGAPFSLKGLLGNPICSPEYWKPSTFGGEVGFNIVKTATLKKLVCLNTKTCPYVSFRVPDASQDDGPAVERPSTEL
T3 sequence (P23219 24-599): as above

Regarding “2-(5-Methylthien-2-ylmethyl)-4-(4-fluorophenyl)-5-[4-(methylsulfonyl)phenyl]-3(2H)-pyridazinone [Example 43]”, in data set [1], the half-maximal inhibitory concentration (IC50) was 8 nM. Further, the “HWPX % Inhib. at Dose (μM)” value in data set [2] (1 μM) is 9 @ 1%; in data set [2] (10 μM), 86 @ 10%. The “RHUCX1 % Inh. at Dose (μM)” value in data set [3] (100 μM) was 8 @ 100%. Also, the figures for the “RHUCX2 % Inh. at Dose (μM)” value in data set [4] (0.1 μM) and in data set [4] (1 μM) were 96 @ 0.1% and 100 @ 1%, respectively.

`CS(=O)(=O)c1ccc(-c2cnn(Cc3ccccc3)c(=O)c2-c2ccc(Cl)cc2)cc1` [Example 53, 2-Benzyl-4-(4-chlorophenyl)-5-[4-(methylsulfonyl)phenyl]-3(2H)-pyridazinone] returned a melting point of 157 to 159 °C. The inhibition at 0.01 µM in data set [1] (0.01 μM, read-out: Wish % Inhib. at Dose) was determined as 44%. For the same compound, the inhibition at 0.1 µM in data set [1] (0.1 μM, read-out: Wish % Inhib. at Dose) amounted to 90%. In data set [2] (1 μM, read-out: HWPX % Inhib. at Dose), the inhibition at 1 µM came out at 8%. Also, the inhibition at 10 µM in data set [2] (setting [5]) is 78%. The inhibition at 100 µM in data set [3] (100 μM) came out at 10%. In data set [4] (setting [6]), the inhibition at 0.1 µM was determined as 77%. Also, in data set [4] (setting [7]), the inhibition at 1 µM was 99%.

`NS(=O)(=O)c1ccc(-c2cnn(-c3ccc(F)cc3)c(=O)c2-c2ccc(F)cc2)cc1F` [Example 72, 2,4-Bis-(4-fluorophenyl)-5-[3-fluoro-4-(aminosulfonyl)phenyl]-3(2H)-pyridazinone] showed a melting point of 222 to 224 °C. The IC50 in data set [1] was 72 nM. Further, the IC50 in data set [2] turned out to be 25000 nM. Moreover, the inhibition at 100 µM in data set [3] (100 μM) worked out at 0%. The inhibition at 0.1 µM in data set [4] (setting [6]) turned out to be 18%. Moreover, the inhibition at 1 µM in data set [4] (setting [7]) came out at 65%.

With `CS(=O)(=O)c1ccc(-c2cnn(-c3ccc(Cl)s3)c(=O)c2-c2ccc(Cl)cc2)cc1` [Example 100, 2-(5-Chloro-2-thienyl)-4-(4-chlorophenyl)-5-[4-(methylsulfonyl)phenyl]-3(2H)-pyridazinone], the melting point was 249 to 251 °C. Moreover, the IC50 in data set [1] was 20 nM. Further, the IC50 in data set [2] was 130 nM. Moreover, the inhibition at 1 µM in data set [3] (1 μM) turned out to be 65%. In addition, in data set [3] (10 μM), the inhibition at 10 µM was 62%. Moreover, the inhibition at 0.1 µM in data set [4] (setting [6]) amounted to 61%. Besides, the inhibition at 10 µM in data set [4] (10 μM, read-out: RHUCX2 % Inh. at Dose) came to 100%.

`CS(=O)(=O)c1ccc(-c2cnn(-c3ccc([N+](=O)[O-])s3)c(=O)c2-c2ccc(F)cc2)cc1` [Example 105, 2-(5-Nitro-2-thienyl)-4-(4-fluorophenyl)-5-[4-(methylsulfonl)phenyl]-3(2H)-pyridazinone]: the IC50 in data set [1] was found to be 18 nM. Further, in data set [2] (1 μM), the “HWPX % Inhib. at Dose (μM)” value is given as 62 @ 1%. In data set [3] (1 μM), the “RHUCX1 % Inh. at Dose (μM)” value is listed as 85 @ 1%. Also, the “RHUCX2 % Inh. at Dose (μM)” value in data set [4] (0.1 μM) is 52 @ 0.1%; in data set [4] (1 μM), 98 @ 1%.

For `CS(=O)(=O)c1ccc(-c2cnn(-c3ccc(F)cc3)c(=O)c2Oc2ccc(F)cc2)cc1` [Example 108, 2-(4-Fluorophenyl)-4-(4-fluorophenoxy)-5-[4-(methylsulfonyl)phenyl]-3(2H)-pyridazinone], the IC50 in data set [1] was 97 nM; in data set [2], 8000 nM; in data set [4], 279 nM. In addition, in data set [3] (100 μM), the inhibition at 100 µM stood at 0%.

With `CC(/C=C/Cl)n1ncc(-c2ccc(S(N)(=O)=O)cc2)c(-c2ccc(F)cc2)c1=O` (stereo not drawn) [Example 140, 2-(3-Chloro-1-methyl-2E-propenyl)-4-(4-fluorophenyl)-5-[4-(aminosulfonyl)phenyl]-3(2H)-pyridazinone], the IC50 came to 10 nM in data set [1], 773 nM in data set [2], 3060 nM in data set [3] and 22 nM in data set [4].

Regarding `NS(=O)(=O)c1ccc(-c2cnn(CC(F)=C(F)F)c(=O)c2-c2ccc(F)cc2)cc1` [Example 141, 2-(2,3,3-Trifluoro-2-propen-1-yl)-4-(4-fluorophenyl)-5-[4-(aminosulfonyl)phenyl]-3(2H)-pyridazinone], the melting point lay within 173 to 175 °C. Besides, the IC50 in data set [1] is 4 nM. The inhibition at 0.3 µM in data set [2] (0.3 μM, read-out: HWPX % Inhib. at Dose) was found to be 56%. The inhibition at 10 µM in data set [3] (10 μM) amounted to 62%. For the same compound, in data set [3] (100 μM), the inhibition at 100 µM was 55%. In addition, in data set [4] (setting [6]), the inhibition at 0.1 µM amounted to 95%. In data set [4] (setting [7]), the inhibition at 1 µM came out at 99%.

Turning to `C=C(F)C(F)(F)n1ncc(-c2ccc(S(N)(=O)=O)cc2)c(-c2ccc(F)cc2)c1=O` [Example 142, 2-(1,1,2-Trifluoro-2-propenyl)-4-(4-fluorophenyl)-5-[4-(aminosulfonyl)phenyl]-3(2H)-pyridazinone], the melting point was 230 to 232 °C. Besides, the IC50 in data set [1] came to 88 nM. In addition, the IC50 in data set [2] turned out to be 7530 nM. Further, the inhibition at 1 µM in data set [3] (1 μM) was 53%. Besides, the inhibition at 10 µM in data set [3] (10 μM) is 80%. In data set [4] (0.01 μM, read-out: RHUCX2 % Inh. at Dose), the inhibition at 0.01 µM was 32%. For the same compound, the inhibition at 0.1 µM in data set [4] (setting [6]) was determined as 45%. In addition, the inhibition at 1 µM in data set [4] (setting [7]) turned out to be 96%.

`NS(=O)(=O)c1ccc(-c2cnn(CC3=CCCCC3)c(=O)c2-c2ccc(F)cc2)cc1` [Example 145, 2-(1-Cyclohexenylmethyl)-4-(4-fluorphenyl)-5-[4-(aminosulfonyl)phenyl]-3(2H)-pyridazinone]: the results for the IC50 in data set [1] and in data set [3] were 9 nM and 238 nM, respectively. The results for the “HWPX % Inhib. at Dose (μM)” value in data set [2] (0.3 μM) and in data set [2] (1 μM) were 30 @ .3% and 72 @ 1%, respectively. The “RHUCX2 % Inh. at Dose (μM)” value is recorded as 56 @ 0.01% in data set [4] (0.01 μM) and 86 @ 0.1% in data set [4] (0.1 μM).

`CC(c1ccc(F)c(F)c1F)n1ncc(-c2ccc(S(N)(=O)=O)cc2)c(-c2ccc(F)cc2)c1=O` (stereo not drawn) [Example 146, 2-(α-Methyl-2,3,4-trifluorobenzyl)-4-(4-fluorophenyl)-5-[4-(aminosulfonyl)phenyl]-3(2H)-pyridazinone]: the melting point was 192 to 194 °C. The IC50 in data set [1] came out at 44 nM. The inhibition at 3 µM in data set [2] (3 μM, read-out: HWPX % Inhib. at Dose) stood at 46%. In addition, the inhibition at 10 µM in data set [2] (setting [5]) turned out to be 84%. For the same compound, the inhibition at 1 µM in data set [3] (1 μM) was determined as 53%. In addition, the inhibition at 10 µM in data set [3] (10 μM) came to 82%. The inhibition at 0.1 µM in data set [4] (setting [6]) was found to be 73%. In addition, the inhibition at 1 µM in data set [4] (setting [7]) is 100%.

For the compound `NS(=O)(=O)c1ccc(-c2cnn(Cc3cccc(F)c3)c(=O)c2-c2ccc(F)cc2)cc1` [Example 149, 2-(3-Fluorobenzyl)-4-(4-fluorophenyl)-5-[4-(aminosulfonyl)phenyl]-3(2H)-pyrdazinone], the IC50 was 30 nM in data set [1] and 3 nM in data set [4]. Also, the results for the “HWPX % Inhib. at Dose (μM)” value in data set [2] (3 μM) and in data set [2] (10 μM) were 34 @ 3% and 89 @ 10%, respectively. Besides, the “RHUCX1 % Inh. at Dose (μM)” value in data set [3] (1 μM) is 40 @ 1%; in data set [3] (10 μM), 45 @ 10%.

As for `CS(=O)(=O)c1ccc(-c2cnn(-c3ccc(F)cc3)c(=O)c2COc2ccc(F)cc2)cc1` [Example 194, 2-(4-Fluorophenyl)-4-(4-fluolophenoxymethyl)-5-[4-(methylsulfonyl)phenyl]-3(2H)-pyridazinone], the IC50 in data set [1] came to 69 nM; in data set [2], 28100 nM. The “RHUCX1 % Inh. at Dose (μM)” value in data set [3] (100 μM) is 35 @ 100%. Also, the “RHUCX2 % Inh. at Dose (μM)” value is 72 @ 0.1% in data set [4] (0.1 μM), 73 @ 1% in data set [4] (1 μM) and 90 @ 10% in data set [4] (10 μM).

By IC50 is commonly meant the point on the concentration scale where inhibition reaches its midpoint. For orientation: melting point means the temperature, or range, at which the solid turns liquid.
